Patent US10617735B2, “Methods and compositions for preserving retinal ganglion cells” (Massachusetts Eye and Ear Infirmary, priority 2010, dated 2020)

Columns and labels:
Format in all cases: in vivo, mouse
[1] = test system: retinal ganglion cells (RGCs); test: TUNEL staining after ON injury; conditions: one day after ON injury; intravitreal 3-MA (33.3 mM); compared to non-treated mice
Description: Two mouse models of RGC death were utilized: optic nerve (ON) injury and N-methyl-D-aspartate (NMDA) retinal excitotoxicity. ON injury leads to RGC death as a result of primary damage to the axons, with its ensuing disruption of retrograde axonal transport (Libby et al., (2005) PLOS GENET 1:17-26) and is used as an RGC death model. In the ON injury model, mice were anesthetized and subjected to severe crush injury at 1-2 mm distance from the eyeball for 15 seconds using cross-action forceps taking special care not to interfere with the blood supply (Levkovitch-Verbin, (2004) EYE 18:1066-1074). […] Soon after injury, each group received an intravitreal injection (2 μl) with the respective compounds. In the NMDA retinal excitotoxicity model, NMDA (2 μl of a 0.1M stock; Sigma-Aldrich) was injected intravitreously in combination with ZVAD, Nec-1, or ZVAD plus Nec-1 and mice were separated into the aforementioned 4 groups. The dose of these compounds was selected based on previous studies (Karl et al., (2008) PROC NATL ACAD SCI USA 105:19508-19513; Knoferle et al., (2010) PROC NATL ACAD SCI USA 107:6064-6069; Nakazawa et al., (2006) J NEUROSCI 26:12633-12641; Rosenbaum et al., (2010) J NEUROSCI RES 88:1569-1576).
Intravitreal injections were performed as follows. Briefly, the tip of a 33 gauge needle (Hamilton, Reno, Nev.) was carefully inserted through the sclera into the intravitreal space to reduce intraocular pressure. Then, the needle was extracted, loaded with compounds and tangentially reinserted through the sclera into the intravitreal space, inducing a self-sealing wound tunnel. After injection, the absence of choroidal bleeding was confirmed. At specified times after injury, mice were sacrificed with an overdose of sodium pentobarbital, and eyes were enucleated.

[2] = test system: retinal ganglion cells (RGCs); test: Brn3b immunohistochemistry (viable RGCs) after ON injury; conditions: seven days after ON injury; intravitreal 3-MA (33.3 mM); effect less than ZVAD plus Nec-1
Description: Two mouse models of RGC death were utilized: optic nerve (ON) injury and N-methyl-D-aspartate (NMDA) retinal excitotoxicity. ON injury leads to RGC death as a result of primary damage to the axons, with its ensuing disruption of retrograde axonal transport (Libby et al., (2005) PLOS GENET 1:17-26) and is used as an RGC death model. In the ON injury model, mice were anesthetized and subjected to severe crush injury at 1-2 mm distance from the eyeball for 15 seconds using cross-action forceps taking special care not to interfere with the blood supply (Levkovitch-Verbin, (2004) EYE 18:1066-1074). Injured mice were randomly divided into 4 groups for treatment: vehicle group (0.5% DMSO and 0.8% cyclodextrin in PBS, n=6), ZVAD group (300 n=6), Nec-1 group (4 mM, n=6), and ZVAD plus Nec-1 group (n=6). Soon after injury, each group received an intravitreal injection (2 μl) with the respective compounds. In the NMDA retinal excitotoxicity model, NMDA (2 μl of a 0.1M stock; Sigma-Aldrich) was injected intravitreously in combination with ZVAD, Nec-1, or ZVAD plus Nec-1 and mice were separated into the aforementioned 4 groups. […]

[3] = test system: retinal ganglion cells (RGCs); test: IPL thickness and GCL with IPL thickness after ON injury (immunohistochemistry, SD-OCT); conditions: seven days after ON injury; intravitreal 3-MA (33.3 mM); effect less than ZVAD plus Nec-1
Description: An anti-TNF-α neutralizing antibody (0.1 mg/ml) or a control antibody was injected into the vitreous of mice that underwent ON injury. One week following injection, the number of RGCs were measured. In addition, inner plexiform layer (IPL) thickness (a location of RGC axons) was also assessed. Specifically, eyes were enucleated and RGC loss was quantified from histological sections of mouse retina. Only transverse sections involving the optic disc were used for analysis and the fields corresponding to approximately 400 μm of both sides of retina extending from the ON head (2 points/section×3 sections per eye, n=6) were examined with an optical microscope (×40 objectives). IPL thickness was measured with OpenLab software (Open Lab, Florence, Italy) (2 points/section×3 sections per eye, n=6). The ratio of IPL thickness was calculated as a percentage of IPL thickness in the normal mouse eyes (n=6).
Inner plexiform layer (IPL) thickness and ganglion cell layer (GCL) with IPL thickness (location of RGC cell bodies and axons) were measured using immunohistochemistry and a Spectral Domain Optical Coherence Tomography (SD-OCT) system (Bioptigen Inc., Durham, N.C.). […] The thickness of GCL+IPL was assessed at 500 μm, 400 μm, 300 μm distance from the ON head (nasally and temporally) as well as at 200 μm, 400 μm above and below the ON head.

[4] = test system: ROS; test: Protein carbonyl contents in retina after ON injury (ELISA); conditions: one day after ON injury; intravitreal 3-MA; compared with untreated control
Description: It has been reported that RIP kinases control ROS generation during programmed necrosis (Cho et. al., (2009) CELL 137:1112-1123, Zhang et al., (2009) SCIENCE 325:332-336)). To investigate whether ROS play a roll in oxidative retinal damage after ON injury, protein level of carbonyl contents was analyzed using ELISA using the OxiSelect™ Protein Carbonyl ELISA Kit (Cell Biolabs, San Diego, Calif.).
To investigate the role of autophagy in RGC death after ON injury, we examined the effect of 3-methyladenine (3-MA) on RGCs death after ON injury. 3-MA inhibits autophagosome formation (Seglen and Gordon, (1982) PROC NATL ACAD SCI USA 79:1889-1892)). One day after ON injury, TUNEL assay was performed. […] In addition, the number of Brn3b positive cells and IPL thickness were also analyzed. […] To investigate whether ROS play a role in oxidative retinal damage after ON injury, protein level of carbonyl contents was analyzed using an ELISA kit (Cell Biolabs, San Diego, Calif.) according to the manufacturer's instructions. One day after ON injury, carbonyl contents decreased in the 3-MA treated group compared with untreated control (FIG. 10F).

Q: What does the source list for `Cn1cnc(N)c2ncnc1-2` [3-MA, 3-methyladenine]?
A: number of TUNEL positive cells [1]: small but statistically significant decline; reduction of Brn3b positive cells [2]: significantly prevented the reduction; reduction of IPL thickness ratio [3]: significantly prevented the reduction; carbonyl contents (protein level, ELISA) [4]: decreased
